What was measured:
mouse UT-B = molecular target: T1, mouse UT-B (Mus musculus, UniProt Q8VHL0); assay: Stopped-flow light scattering, mouse RBCs (N-methylurea gradient); type: cell-based
T1 construct: the indicator cells are red blood cells that endogenously express the UT-B urea transporter; endogenous in cells; host or cells: mouse red blood cells (CD1 background; wild-type for A4, AQP1-null for A10)
T1 sequence (Q8VHL0 1-384): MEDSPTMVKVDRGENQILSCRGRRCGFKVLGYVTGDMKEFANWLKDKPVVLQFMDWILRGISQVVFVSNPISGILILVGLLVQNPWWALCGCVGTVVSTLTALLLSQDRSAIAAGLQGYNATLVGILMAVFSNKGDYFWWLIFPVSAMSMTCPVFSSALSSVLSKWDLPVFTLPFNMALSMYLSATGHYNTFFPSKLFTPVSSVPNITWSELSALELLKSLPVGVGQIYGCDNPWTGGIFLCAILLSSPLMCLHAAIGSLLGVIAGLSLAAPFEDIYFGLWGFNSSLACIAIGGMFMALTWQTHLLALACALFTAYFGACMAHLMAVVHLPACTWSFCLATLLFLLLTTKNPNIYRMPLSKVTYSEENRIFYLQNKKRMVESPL
Method: (§1) RBC urea and water permeabilities were assayed by stopped-flow light scattering using a Hi-Tech Sf-51 instrument (Wiltshire, UK). For measurement of urea permeability, dilutions of whole blood (human or mouse; see Example 1) in PBS (hematocrit: approximately 0.5%) were incubated with test compounds for 5 min and then subjected to a 250-mM inwardly directed gradient of urea. After an initial osmotic shrinking phase, the kinetics of increasing cell volume caused by urea influx were measured as the time-course of 90° scattered light intensity at 530 nm, with increasing cell volume resulting in reduced scattered light intensity. As a positive control, 0.7 mM phloretin was added to the RBC suspension prior to stopped-flow experiments. Measurements of water permeability were carried out similarly, with sucrose (cell-impermeant) used instead of urea to establish a 250-mM osmotic gradient. As a positive control, HgCl2 (0.3 mM) was added to the RBC suspension prior to stopped-flow measurements. Osmotic water permeability coefficients (Pf) were computed from light scattering data as described (van Hoek et al., J Biol. Chem. 267:18267-69 (1992)). […]

RBCs from wild-type mice = assay: Osmotic water permeability, RBCs from wild-type mice (stopped-flow); type: cell-based, mouse; details: 10° C., 250-mM sucrose gradient
Method: (§2) RBC urea and water permeabilities were assayed by stopped-flow light scattering using a Hi-Tech Sf-51 instrument (Wiltshire, UK). For measurement of urea permeability, dilutions of whole blood (human or mouse; see Example 1) in PBS (hematocrit: approximately 0.5%) were incubated with test compounds for 5 min and then subjected to a 250-mM inwardly directed gradient of urea. After an initial osmotic shrinking phase, the kinetics of increasing cell volume caused by urea influx were measured as the time-course of 90° scattered light intensity at 530 nm, with increasing cell volume resulting in reduced scattered light intensity. As a positive control, 0.7 mM phloretin was added to the RBC suspension prior to stopped-flow experiments. Measurements of water permeability were carried out similarly, with sucrose (cell-impermeant) used instead of urea to establish a 250-mM osmotic gradient. As a positive control, HgCl2 (0.3 mM) was added to the RBC suspension prior to stopped-flow measurements. Osmotic water permeability coefficients (Pf) were computed from light scattering data as described (van Hoek et al., J Biol. Chem. 267:18267-69 (1992)).
This example describes chemical knock-out of UT-B by UT-B inhibitors in RBCs and the effect on UT-B-facilitated water transport. […] Osmotic water permeability was measured by stopped-flow light scattering in RBCs from wild-type and AQP1-null mice as shown in FIG. 8A. […] AQP1-null RBCs had greater than 5-fold reduced Pf compared to wild-type RBCs.

UT-B [1] = molecular target: T2, UT-B (Mus musculus, UniProt Q8VHL0); assay: Osmotic water permeability, AQP1-null mouse RBCs (UT-B-facilitated water transport); type: cell-based; details: 10° C., 250-mM sucrose gradient
T2 construct: the indicator cells are red blood cells that endogenously express the UT-B urea transporter; endogenous in cells; host or cells: mouse red blood cells (CD1 background; wild-type for A4, AQP1-null for A10)
T2 sequence (Q8VHL0 1-384): T1 sequence (Q8VHL0 1-384)
Method: as §1, with “measurements.” for “measurements. Osmotic water permeability coefficients (Pf) were computed from light scattering data as described (van Hoek et al., J Biol. Chem. 267:18267-69 (1992)).”
This example describes chemical knock-out of UT-B by UT-B inhibitors in RBCs and the effect on UT-B-facilitated water transport. […] Osmotic water permeability was measured by stopped-flow light scattering in RBCs from wild-type and AQP1-null mice as shown in FIG. 8A. […]

UT-B [2] = molecular target: T3, UT-B (Homo sapiens, UniProt Q13336); assay: Stopped-flow light scattering, urea permeability of human RBCs; type: cell-based; parameters: a red blood cell (i.e., erythrocyte), which endogenously expresses the urea transporter UT-B; endogenous in cells; host or cells: human red blood cells (whole blood, single donor); details: for inhibition of urea transport, inhibitor only in urea-containing solution (sidedness): external exposure at time of stopped-flow, 0.1 μM ureainh-101, 0.2 μM ureainh-302; for reversibility of inhibition after washing RBCs: washed after 10 min incubation
T3 sequence (Q13336 1-389): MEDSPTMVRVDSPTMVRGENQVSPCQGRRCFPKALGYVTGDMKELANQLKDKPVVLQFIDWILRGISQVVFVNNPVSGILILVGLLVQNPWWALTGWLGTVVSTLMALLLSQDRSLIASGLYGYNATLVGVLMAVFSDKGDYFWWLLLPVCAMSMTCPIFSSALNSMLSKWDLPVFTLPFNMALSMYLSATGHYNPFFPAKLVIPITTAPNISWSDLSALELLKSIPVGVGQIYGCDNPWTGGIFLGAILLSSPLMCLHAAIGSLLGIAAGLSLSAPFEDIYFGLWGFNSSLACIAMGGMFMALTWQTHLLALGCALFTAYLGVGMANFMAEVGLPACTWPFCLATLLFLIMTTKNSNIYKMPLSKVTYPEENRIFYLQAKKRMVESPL
Method: as §2
After repeating the 96-well plate RBC lysis assay to confirm compound activity (see Example 2), bona fide urea transport inhibition was determined by stopped-flow light scattering from the kinetics of urea influx (RBC swelling) in response to an inwardly directed urea gradient. Rapid mixing of an RBC suspension with a hyperosmolar solution containing excess 250 mM urea produced rapid cell shrinking due to osmotic water efflux, followed by cell swelling as urea (and water) influx occurred.
To determine EC50 values for urea transport inhibition directly, RBC urea transport was measured by stopped-flow light scattering using a non-saturating concentration of extracellular urea (to avoid possible competition effects). EC50 for inhibition of RBC urea transport was determined independently by comparing stopped-flow light scattering curves to a model of cell shrinking-swelling.
For stopped-flow experiments, a 100-mM gradient of urea (for human RBCs) or N-methylurea (for mouse RBCs) was used to minimize competition effects (apparent urea and N-methylurea affinities at 23° C. are approximately 200 and approximately 100 mM, respectively) (Mayrand et al., J Gen Physiol. 81:221-37 (1983)). N-methylurea, with greater than 2-fold slower RBC permeability than urea, was used in mouse studies to better resolve overlapping water and urea transport kinetics. Dose-response data were also collected for human RBCs using a high concentration of 1 M urea to distinguish between competitive vs. non-competitive inhibitor binding.
The two coupled differential equations describing water efflux and solute influx in response to externally added urea or methylurea were numerically integrated using the forward Euler method (Δt=0.01 s) to reproduce the biphasic changes in cell volume observed experimentally. Computations that were performed using the smaller time step (Δt=0.001 s) gave similar results, confirming the adequacy of the 0.01 s time step. Water flux, Jv (in cm^3/s), across erythrocyte membranes is represented by the following equation: Jv=−Pf·S·vw·[(Ie−Ic(i))+(Ue−Uc(i))]; solute flux, Js (in mol/s), is represented by the following equation: Ps·S·(Ue−Uc(i)). Permeability coefficients (Pf and Ps) are expressed in units of cm/s, cell surface area (S) in cm^2, extracellular (e) and cellular (c) concentrations of impermeant (I) and urea/methylurea (U) solute in mol/cm^3, and vw is […]. Initial conditions were Ie=Ic(0)=2.9×10^−4 mol/cm^3, Ue=10^−4 mol/cm^3, and Uc(0)=0. […]

SMILES | inhibitory potencies against mouse UT-B (mouse UT-B) | effect on water transport in RBCs from wild-type mice (RBCs from wild-type mice) | effect on water permeability in AQP1-null RBCs (UT-B [1]) | inhibition at 0.1 µM (UT-B [2]; 10 min pre-incubation, 0.1 μM ureainh-101, 0.4 μM ureainh-302, read-out: transport inhibition after pre-incubation) [%] | inhibition of urea transport, inhibitor only in urea-containing solution (sidedness) (UT-B [2]) | reversibility of inhibition after washing RBCs (UT-B [2]) | concentration dependence of inhibition of urea permeability by externally added inhibitor (UT-B [2]; externally added, 0.05-0.2 μM)
NC(=O)CSc1oc(-c2ccccc2)nc1S(=O)(=O)c1ccc(Br)cc1 [ureainh-101, 2-(4-(4-bromophenylsulfonyl)-2-phenyloxazol-5-ylthio)acetamide] | good inhibitory potencies | little effect | further inhibited water permeability | > 95 | did not inhibit urea transport | fully reversible inhibition | –
Cc1ccc(Nc2nnc(-c3ccc(C(N)=O)cc3)c3ccccc23)cc1 [ureainh-302] | good inhibitory potencies | little effect | further inhibited water permeability | – | sizable effect | fully reversible inhibition | concentration-dependent

From patent US8394788B2, “Phenylsulfoxyoxazole compound inhibitors of urea transporters” (The Regents of the University of California, priority 2006, dated 2013)
